pKd, pKi: −log10 of the molar value. Bridge positions count the residues as written; N and C are the ends. Ends that are not written are not given here.
Columns and labels:
6-OHDA-treated cells = conditions: cited from earlier work
Kv channels = conditions: cited from earlier work
TRPV1 = conditions: cited from earlier work
Recombinant human P2X7R = molecular target: T1, Recombinant human P2X7R (Homo sapiens, UniProt Q99572); test: SPR binding to immobilized P2X7R extracellular domain; conditions: Biacore 3000, CM5 chip, P2X7R a.a. 47–334, HBS-N pH 7.4, 25 °C, peptide 5–100 μM, two-state (conformational change) binding model
T1 construct: complete extracellular domain, 36.8 kDa; purchased Abbexa LTD, Cambridge, UK
T1 sequence (Q99572 47-334): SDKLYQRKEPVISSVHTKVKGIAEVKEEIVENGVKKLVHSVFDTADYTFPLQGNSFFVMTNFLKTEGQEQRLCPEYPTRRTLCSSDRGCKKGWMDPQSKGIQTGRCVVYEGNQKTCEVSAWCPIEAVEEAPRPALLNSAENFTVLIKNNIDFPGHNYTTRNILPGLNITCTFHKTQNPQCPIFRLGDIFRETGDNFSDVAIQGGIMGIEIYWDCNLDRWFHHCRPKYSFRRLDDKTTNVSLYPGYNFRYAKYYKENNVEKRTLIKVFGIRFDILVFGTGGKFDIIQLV
Procedure: SPR analyses were performed based on using a Biacore 3000 optical biosensor (GE Healthcare, USA) running under the program “Biacore 3000 Control Software v.1.0”. Recombinant human P2X7R (sequence positions of 47–334 a.a.; complete extracellular domain, 36.8 kDa) (Abbexa LTD, Cambridge, UK) was covalently immobilized on the carboxymethylated surface of the Biacore CM5 sensor chip (Cytiva, Chicago, IL, USA), then activated by the 1:1 mixture of 0.2 M 1-ethyl-3-(3-dimethylaminopropyl)carbodiimide hydrochloride (EDC) and 0.05 M N-hydroxysuccinimide (NHS) via the injection of receptor solution (15 μg/mL) in 10 mM sodium acetate (pH 5.0) for 10 min at a flow rate of 5 μL/min. The reference channel without immobilized P2X7R was used to correct the effects of the non-specific binding of peptides to the chip surface. The quantity of the immobilized hP2X7R equaled 12300 RU (resonance units, 1 RU corresponds to 1 pg receptor bound per mm^2 of chip surface). HBS-N (10 mM HEPES, 150 mM NaCl, pH 7.4) (Cytiva, USA) was used as a running buffer for SPR assays. Peptide solutions in the HBS-N buffer over a concentration range of 5–100 μM were passed through biosensor channels (working and reference) at a flow rate of 10 µL/min for 3 min at 25 °C. Dissociation of the formed peptide–P2X7R complexes was registered at the same flow rate for no less than 6 min from the moment of sample injection. […]

[1] = Thermal stability by CD spectroscopy; type: physicochemical; conditions: CD spectra and residual trypsin-inhibitory activity
Procedure: Figure 5 Evaluation of the thermal stability of peptides in deionized water via CD spectroscopy. Recordings of the CD spectra of HCIQ2c1 (a), HMIQ3c1 (b), HCIQ4c7 (c), and HCIQ1c9 (d) were conducted in the far UV region (190–240 nm) after the solutions were incubated over a temperature range from 25 °C to 100 °C for 20–25 min.
Circular dichroism (CD) spectra were recorded on a Chirascan-Plus CD spectropolarimeter (Applied Photophysics, Leatherhead, UK) in quartz cuvettes with an optical path length of 0.1 cm for the peptide spectrum region. The peptides were dissolved in deionized water ([…]) and incubated at temperatures ranging from 25 °C to 100 °C for 20–25 min before recording the CD spectra. The secondary structure elements were calculated using the Provencher–Glockner method using advanced Provencher calculation programs from the CDPro software package (Leatherhead, UK).

trypsin [2] = molecular target: T2, trypsin (Bos taurus, UniProt P00760); test: Residual trypsin-inhibitory activity after heating; type: biochemical; conditions: 7 μM peptide, 1.2 mM BAPNA, 37 °C, three parallel experiments
T2 sequence (P00760 24-246): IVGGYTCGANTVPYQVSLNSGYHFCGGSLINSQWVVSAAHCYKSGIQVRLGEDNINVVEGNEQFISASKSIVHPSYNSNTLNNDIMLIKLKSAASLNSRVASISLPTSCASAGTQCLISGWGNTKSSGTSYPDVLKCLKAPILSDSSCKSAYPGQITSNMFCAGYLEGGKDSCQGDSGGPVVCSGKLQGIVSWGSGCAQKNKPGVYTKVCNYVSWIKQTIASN
Procedure: Figure 6 The effects of temperature on the trypsin-inhibitory activity levels of peptides. Peptides were incubated at the temperatures for 30 min and their residual activities were measured.
The temperature influence on the activity levels of peptides was assessed by measuring their residual inhibitory activity levels. After preincubation at temperatures ranging from 25 to 100 °C for 25 min, the peptide solutions were added to trypsin solution and the reaction mixtures were incubated for 10 min at 37 °C, then 1.2 mM BAPNA was added, followed by incubation at 37 °C for 30 min. The final concentration of the peptides was 7 μM. Substrate hydrolysis was measured at 410 nm. The residual activity was calculated based on the results of three parallel experiments according to the following equation [60]:% = (1 − residual enzyme activity/enzyme activity without inhibitor) × 100

trypsin [3] = molecular target: T2, trypsin; test: Trypsin inhibition (BAPNA substrate, Dixon's method); type: biochemical; conditions: BAPNA 0.6 and 1.2 mM, trypsin 208 nM, peptide 0–20 μM, three parallel experiments, read-out: trypsin inhibitory constant (Ki)
Procedure: The trypsin-inhibitory activity of HCIQ1c9 was estimated according to the standard procedure using N-α-benzoyl-D,L-arginine p-nitroanilide (BAPNA) (Sigma-Aldrich, St. Louis, MO, USA) as a substrate. The trypsin inhibition constant was determined using Dyxon’s method using substrate concentrations of 0.6 and 1.2 mM. The trypsin concentration was 208 nM. The range of peptide concentrations was 0–20 μM. The constant was calculated based on the results of three parallel experiments. Computational error limits were in the range of 0.1–0.3%.

trypsin [4] = test: enzyme inhibition kinetics (Dixon's method); trypsin 208 nM, substrate BAPNA 0.6 and 1.2 mM, peptide 0-20 uM; three parallel experiments
trypsin [5] = molecular target: trypsin

Substance: HCRG1: Kunitz-type peptide from H. crispa, C0HJU6 (RGICSEPKVVGPCKAGLRRFYYDSETGECKPFIYGGCKGNKNNFETLHACRGICRA; UniProt C0HJU6 1-56, looked up)
- effect on ROS production in 6-OHDA-treated cells (6-OHDA-treated cells): maintained ROS production in 6-OHDA-treated cells at the reference level
- activity on Kv channels (Kv channels): blockers of Kv channels

Substance: HCRG2: Kunitz-type peptide from H. crispa, C0HJU7 (RGICLEPKVVGPCKARIRRFYYDSETGKCTPFIYGGCGGNGNNFETLHACRGICRA; UniProt C0HJU7 1-56, looked up)
- effect on ROS production in 6-OHDA-treated cells (6-OHDA-treated cells): maintained ROS production in 6-OHDA-treated cells at the reference level
- activity on Kv channels (Kv channels): blockers of Kv channels

Substance: HCRG21: Kunitz-type peptide from H. crispa, P0DL86; blocker of TRPV1 (RGICSEPKVVGPCTAYFRRFYFDSETGKCTPFIYGGCEGNGNNFETLRACRAICRA; UniProt P0DL86 1-56, looked up)
- decrease in ROS production below the control (6-OHDA-treated cells; 6-OHDA model): up to 87%
- activity on TRPV1 (TRPV1): blocker of TRPV1

Substance: IQGNICSEPKKVGRCRESFPRFYFDSETGKCTPFIYGGCGGNGNNFETLHACRAICRA (disulfide 6-56, 15-39, 31-52) [HCIQ4c7]
- pKd (Recombinant human P2X7R): 4.34
- thermostability: retains conformation and biological activity until [1]: 90–100 °C
- decrease in trypsin-inhibitory activity after heating (trypsin [2]; after heating to 100 °C): 7%

Substance: IQGNICSEPKKVGRCRGSFPRFYFDSETGKCTPFIYGGCGGNGNNFETLRRCRAICRA (disulfide 6-56, 15-39, 31-52) [HMIQ3c1]
- pKd (Recombinant human P2X7R): 4.36
- thermostability: retains conformation and biological activity until [1]: 90–100 °C

Substance: IQGNICSEPKKVGRCRRSFPRFYFDSETGKCTPFIYGGCGGNGNNFETLHACRAICRA (disulfide 6-56, 15-39, 31-52) [HCIQ1c9]
- pKi (trypsin [3]): 6.20
- decrease in trypsin-inhibitory activity after heating (trypsin [2]; heating in the range from 60 °C to 100 °C): 30–70%

Substance: Kunitz-type peptide HCIQ1c9
- pKi (trypsin [4]): 6.20
- decrease of trypsin-inhibitory activity (BAPNA hydrolysis) of 7 uM peptide after preincubation at 60 to 100 °C (trypsin [5]): 30 to 70 % decrease

Reference: article PMC9103184, “Kunitz-Type Peptides from Sea Anemones Protect Neuronal Cells against Parkinson’s Disease Inductors via Inhibition of ROS Production and ATP-Induced P2X7 Receptor Activation” (International Journal of Molecular Sciences, 2022)
